The target of series [1] is T1, hSERT (Homo sapiens, UniProt P31645).
T1 construct: expressed in transfected cells; the general 96-well protocol names Cos-1
Put plainly: 5-HT uptake assay, 10 min incubation without preincubation. As to conditions: 75 nM [3H]-5-HT, no preincubation. The series is classed as cell-based. The procedure: Cells were grown for 48 h to confluency, and prior to uptake assay, plates were washed in PBSCM. All washing steps were carried out in an automatic plate washer. […] The assay was terminated by washing with PBSCM. The amount of accumulated [^3H]-5HT was determined by solubilizing cells in scintillant (MicroScint 20) with direct counting of plates in a Packard TopCounter. Data was analyzed by GraphPad software.
(§1) Dissociation of [^3H]-citalopram from the serotonin transporter has been studied using membrane preparations from SERT-expressing cells. The off-rates of the radioligand were measured in the presence/absence of a fixed concentration of allosteric ligand. […] Additionally, the allosteric impact on the radioligand in the absence of citalopram, was studied by combining 10 μM fluoxetine and 200/2000 μM allosteric ligand in the dissociation buffer. […] The cells were incubated for 10 minutes before the assay was terminated by washing in PBSCM.

In series [2] the target is T1, hSERT. Put plainly: Binding of [3H]-citalopram to membrane preparations. As to conditions: 35 nM [3H]-citalopram, 60 min RT. The procedure: (§2) 17.5 μl Fugene-6 (Roche Molecular Biochemicals) were mixed with 280 μl Dulbecco's modified Eagle's medium, and incubated at room temperature for 5 minutes. 10 μg of plasmid were added and the mixture was further incubated at least 15 minutes. […] Prior to harvesting the dish was rinsed in PBS. Cells were harvested with a cell scraper in buffer 1 (50 mM Tris-base, 150 mM NaCl, 20 mM EDTA, pH 7.4). After centrifugation (3000 g at 4° C. for 10 mins), cells were suspended and homogenized with an IKA Ultra-Turrax from Rose Scientific Ltd (Edmonton, Alberta, Canada) for 20 s in buffer 1. Membranes were pelleted by ultracentrifugation (12 000 g at 4° C. for 15 min) and homogenization was repeated in buffer 1. Finally, after ultracentrifugation (12000 g, 4° C., 15 min) membranes were resuspended in 1 ml buffer 3 (50 mM Tris-base, 120 mM NaCl, 5 mM KCl, pH 7.4) and stored at −80° C.
A dilution series of the allosteric ligand was prepared in buffer 3 containing 70 nM [^3H]-citalopram. […] The mixture was incubated under moderate agitation at RT for 60 min. Reactions were terminated by filtration through GF/C glass-fibre filters (Unifilter, Perkin Elmer Life Sciences), preincubated with 40 μl 0.5 % polyethyleneimine, using a Pachard Bell cell harvester, and subsequently washed three times with water. Filters were soaked in 40 μl Microscint 20 scintillation liquid (Pachard Bell). Bound radioactivity was determined by direct counting of plates using a Packard Bell microplate scintillation counter. Displacing curves were obtained by plotting residual binding vs. log concentration of the displacing ligand.

The target in series [3] is T1, hSERT. The experiment in a line: Dissociation assay with [3H]-citalopram and hSERT membrane preparations. The series is classed as binding. As to conditions: for Stabilises dissociation of [3H]-citalopram: own effect (10 uM fluoxetine) (concentration which affects dissociation): 10 uM fluoxetine in dissociation buffer; for Stabilises dissociation of [3H]-citalopram: 15 uM citalopram (concentration which affects dissociation): 15 uM citalopram in dissociation buffer. The procedure:
as §2
Dissociation assay with [^3H]-citalopram and membrane preparations SERT-[^3H]-citalopram complex was formed by incubating hSERT membrane preparation and radioligand in buffer 3 during a 60 min incubation at 4° C. Radioligand was present at a concentration 10 times the Kd value. The time kinetic of dissociation was followed by adding 10 μL complex solution to 250 μL buffer 3 in 96-well plates and incubating subsequently for increasing time intervals at RT. Reactions were terminated by filtration through GF/C glass-fibre filters (Unifilter, Perkin Elmer Life Sciences), preincubated with 40 μl 0.5 % polyethyleneimine, using a Pachard Bell cell harvester, and subsequently washed three times with water. Filters were soaked in 40 μl Microscint 20 scintillation liquid (Pachard Bell). Bound radioactivity was determined by direct counting of plates using a Packard Bell microplate scintillation counter. Dissociation curves were obtained by plotting residual binding vs. time of dissociation.
The interaction of the allosteric ligand with the allosteric mechanism used by citalopram was studied by combining allosteric ligand and citalopram in the dissociation buffer. The interaction of the allosteric ligand with the radioligand was studied by combining the allosteric ligand and fluoxetine in the dissociation buffer.
as §1

The test system of series [4] is dorsal raphe 5-HT neurons. The series is classed as in vivo. As for the experimental part: The experiments were carried out in male Sprague-Dawley rats weighing 250-300 g at the day of the recording. Prior to the acute study, a dose-response curve on the suppressive effect on neuronal firing of fluoxetine was constructed. Subsequently, in the acute study, 5 mg/kg 1-NSC was injected i.v. followed by administration of 1 mg/kg fluoxetine. In the chronic administration experiments, groups of rats were treated with fluoxetine (10 mg/kg/day), 1-NSC (2×10 mg/kg/day) or in combination for 7 days delivered subcutaneously (s.c.) with osmotic minipumps. Control rats received a minipump containing vehicle (NaCl 0.9%). The rats were tested with the minipumps in place.
Extracellular recordings were performed with single-barreled glass micropipettes preloaded with fiberglass filaments in order to facilitate filling. The tip was broken back to 2-4 μm and filled with a 2 M NaCl solution saturated with Pontamine Sky Blue to stain the location. The rats were placed in a stereotaxic frame and a burr hole was drilled on the midline, 1 mm anterior to lambda. Presumed DRN 5-HT neurons were encountered over a distance of 1 mm starting immediately below the ventral border of the Sylvius aqueduct. These neurons were identified using the criteria of Aghajanian (1978): a slow (0.5-2.5 Hz) and regular firing rate and long-duration (0.8-1.2 ms) positive action potentials; they were also verified to be located in DRN. WAY 100635 (N-{2-[4(2-methoxyphenyl)-1-piperazinyl]ethyl}-N-(2-pyridinyl)cyclohexanecarboxamide trihydrochloride; 50-100 μg/kg, i.v.) was used to reverse the suppressant effect of fluoxetine or fluoxetine/1-NSC on the firing activity of DRN 5-HT neurons. […] For the chronic studies, in order to determine the possible changes of the spontaneous firing activity of dorsal raphe 5-HT neurons, four to five electrode descents were carried out through this nucleus, in rats with minipumps in place.
The allosteric ligand 1-NSC was tested in vivo in Sprague-Dawley rats for the ability to interfere with fluoxetine-induced suppression of the neuronal firing rate (Assay 6).

Series [5] deals with T1, hSERT. Put plainly: 5-HT uptake assay with preincubation (whole cells). Conditions: whole cell assay with preincubation (title 45 min, text 60 min), 75 nM [3H]-5-HT, 10 min. The class given is cell-based. The procedure:
7 μl Fugene-6 was mixed with 112 μl Dulbecco's modified Eagle's medium, and incubated at room temperature for 5 minutes. 4 μg of plasmid were added and the mixture was further incubated at least 15 minutes. Cos-1 cells were trypsinized and suspended in growth media, and the plasmid/Fugene-6 mixture was added followed by dispersion into a 96-well plate.
The 96-well plate was washed with PBSCM to remove DMEM prior to the assay. 50 μl PBSCM containing increasing concentrations of allosteric ligand were added to each well, and incubated for 60 min at room temperature under moderate agitation. […] The plate was subsequently incubated for 10 min at room temperature. The assay was terminated by washing once with PBSCM. The amount of accumulated [^3H]-5-HT was determined by solubilizing cells in scintillant (MicroScint 20) with direct counting of plates in a Packard TopCounter. Data was analyzed by GraphPad software.
We tested the allosteric ligands for their ability to inhibit/activate 5-HT-uptake in the whole-cell assay after 60 minutes preincubation.

Series [6] addresses T1, hSERT. The experiment in a line: Binding assay on whole cells transfected with hSERT ([3H]-citalopram displacement). As to conditions: whole cell assay, 35 nM [3H]-citalopram, 60 min room temperature; table title: 45 min preincubation. As for the experimental part:
The pcDNA3 plasmid vector containing the hSERT gene was used for transfection (see FIG. 6).
The 96-well plate was washed with PBSCM to remove DMEM prior to the assay. […] The plate was subsequently incubated for 60 min at room temperature. The assay was terminated by washing once with PBSCM. The amount of accumulated [^3H]-citalopram was determined by solubilizing cells in scintillant (MicroScint 20) with direct counting of plates in a Packard TopCounter. Data was analyzed by GraphPad software.

Series [7] addresses T1, hSERT. Put plainly: Binding of [125I]-RTI-55 in whole cell assay, hSERT. Conditions: displacement of [125I]-RTI-55. From the text:
RTI-55 was used to test for the compounds of the present invention to act as displacers of cocain.
(§3) Because RTI-55 (and cocaine) acts as inhibitors of SERT and DAT, we also performed the binding assay in cells transfected with human DAT.
For orientation: Displacement assays read how much labelled ligand stays bound in the presence of the test substance.

The target in the next series is T2, hDAT (Homo sapiens, UniProt Q01959).
T2 construct: expressed in transfected cells
The experiment in a line: Binding of [125I]-RTI-55 in whole cell assay, cells transfected with human DAT. Conditions: displacement of [125I]-RTI-55.
Text: A binding assay as described in example 2, wherein the cocaine analogue [^125I] RTI-55 was used to test for the compounds of the present invention to act as displacers of cocain.
as §3

SMILES strings stand for the structures. “Also recorded” adds a separate entry of the source.

T1 sequence (P31645 whole entry): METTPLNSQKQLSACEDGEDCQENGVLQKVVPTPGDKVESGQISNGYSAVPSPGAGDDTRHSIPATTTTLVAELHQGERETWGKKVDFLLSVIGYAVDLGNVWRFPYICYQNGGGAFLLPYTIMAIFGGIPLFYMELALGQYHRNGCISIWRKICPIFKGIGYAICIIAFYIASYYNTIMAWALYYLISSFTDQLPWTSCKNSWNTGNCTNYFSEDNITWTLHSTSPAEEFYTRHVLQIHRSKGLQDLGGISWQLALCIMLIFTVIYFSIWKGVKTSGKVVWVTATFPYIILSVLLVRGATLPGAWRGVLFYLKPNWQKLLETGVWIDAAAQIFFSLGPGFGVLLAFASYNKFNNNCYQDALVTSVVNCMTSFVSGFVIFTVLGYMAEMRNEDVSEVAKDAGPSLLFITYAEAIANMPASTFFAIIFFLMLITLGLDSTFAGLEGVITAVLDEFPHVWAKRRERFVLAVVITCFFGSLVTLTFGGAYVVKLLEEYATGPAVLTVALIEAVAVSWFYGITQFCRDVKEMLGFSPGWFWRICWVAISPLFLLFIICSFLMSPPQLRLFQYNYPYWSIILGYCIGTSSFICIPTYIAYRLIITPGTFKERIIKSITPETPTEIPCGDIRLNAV
T2 sequence (Q01959 whole entry): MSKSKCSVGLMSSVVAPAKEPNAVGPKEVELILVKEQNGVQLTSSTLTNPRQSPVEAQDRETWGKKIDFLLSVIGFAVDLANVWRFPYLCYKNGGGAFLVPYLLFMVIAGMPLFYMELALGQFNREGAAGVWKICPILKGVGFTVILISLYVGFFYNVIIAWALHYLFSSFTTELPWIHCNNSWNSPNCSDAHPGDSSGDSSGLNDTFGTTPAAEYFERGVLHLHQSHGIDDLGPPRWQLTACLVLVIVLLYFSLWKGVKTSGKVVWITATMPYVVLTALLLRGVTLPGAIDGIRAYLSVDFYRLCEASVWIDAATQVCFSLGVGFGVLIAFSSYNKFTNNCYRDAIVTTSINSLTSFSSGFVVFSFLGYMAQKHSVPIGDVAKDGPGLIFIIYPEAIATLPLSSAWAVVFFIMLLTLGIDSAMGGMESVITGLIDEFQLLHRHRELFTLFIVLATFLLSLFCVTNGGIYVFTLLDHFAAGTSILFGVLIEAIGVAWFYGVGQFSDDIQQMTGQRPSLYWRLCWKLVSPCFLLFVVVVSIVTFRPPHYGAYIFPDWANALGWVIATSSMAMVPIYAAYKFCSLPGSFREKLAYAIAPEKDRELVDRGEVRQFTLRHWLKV

For `O=S(=O)(Cl)c1cccc2ccccc12` [1-NSC, 1-naphthalenesulfonyl chloride], the “5-HT uptake (effect)” value on hSERT [1] is reported as “Increase”. Further, the “Binding of [3H]-citalopram (Bmax)” value at hSERT [2] is recorded as “Displace”. On hSERT [3], the “Stabilises dissociation of [3H]-citalopram: own effect (10 uM fluoxetine) (concentration which affects dissociation)” value came to 2000 µM and the “Stabilises dissociation of [3H]-citalopram: 15 uM citalopram (concentration which affects dissociation)” value stood at 2000 µM. The “effect of 1-NSC alone on neuronal firing rate” value in series [4] (acute injection, restored within minutes (FIG. 1)) was “small decrease in neuronal firing rate”. In addition, the “effect on fluoxetine-induced suppression of the neuronal firing rate” value in series [4] (acute study, 5 mg/kg 1-NSC then 1 mg/kg fluoxetine, DRN (FIG. 1)) is “acutely enhances the fluoxetine-induced suppression of the neuronal firing rate; also recorded: potentiation of the fluoxetine-induced suppression of the neuronal firing rate”. Also, the “recovery of dorsal raphe 5-HT neuronal firing of fluoxetine treated rats (FIG. 2)” value in series [4] (chronic treatment, 7 day period) is “potentiated”. For the same compound, the toxic side effects result in series [4] (doses used in the experiments of FIGS. 1 and 2, rats) is recorded as “no apparent toxic side effects”.
Regarding `O=C(O)c1c(O)ccc2ccccc12` [TS28], the IC50 (usually the concentration needed to halve the response being measured) against hSERT [5] was over 2000 µM. Also, the EC50 (as a rule, the concentration at which the effect is half-maximal) at hSERT [6] was found to be 276 µM; at hSERT [7], 510 µM; on hDAT, 288 µM.
For the compound `Nc1ccc(S(=O)(=O)O)c2ccccc12` [TS12], the EC50 is 523 µM at hSERT [6], 269 µM on hSERT [7] and 212 µM on hDAT.
In the case of `CNCCC(Oc1ccc(C(F)(F)F)cc1)c1ccccc1` (centres unmarked) [fluoxetine, reference compound], the “recovery of the firing rates” value in series [4] (chronic treatment 7 days s.c. minipumps, rats (FIG. 2)) came out at 30%.
On to `CC(=O)c1ccccc1` [TS9], for which the IC50 on hSERT [5] was over 2000 µM. The EC50 is 990 µM on hSERT [6], over 2000 µM on hSERT [7] and over 2000 µM on hDAT.
`OB(O)c1ccccc1` [TS3] came in with an IC50 against hSERT [5] of 735 µM. Further, the EC50 at hSERT [6] is 1420 µM; at hSERT [7], over 2000 µM; at hDAT, over 2000 µM.
In the case of `COc1ccccc1N1CCN(CCN(C(=O)C2CCCCC2)c2ccccn2)CC1.Cl.Cl.Cl` [Way 100,635, N-{2-[4(2-methoxyphenyl)-1-piperazinyl]ethyl}-N-(2-pyridinyl)cyclohexanecarboxamide trihydrochloride, reference compound], in series [4] (50-100 ug/kg i.v. after fluoxetine or fluoxetine/1-NSC, trihydrochloride), the “reversal of suppression of the neuronal firing rate” value is “reverses the suppressive effect of fluoxetine on the neuronal firing rate; also recorded: completely restored the neuronal firing rate”.
With `Cc1ccc(S(=O)(=O)n2ccnc2)cc1` [TS14], on hSERT [5], the IC50 came to 1820 µM. Also, the “5-HT uptake (effect)” value on hSERT [1] was “No effect”. Moreover, the “Binding of [3H]-citalopram (Bmax)” value at hSERT [2] is “No effect”. Moreover, the “Stabilises dissociation of [3H]-citalopram: own effect (10 uM fluoxetine) (concentration which affects dissociation)” value on hSERT [3] is 2000 µM. In addition, the “Stabilises dissociation of [3H]-citalopram: 15 uM citalopram (concentration which affects dissociation)” value on hSERT [3] is 2000 µM. For the same compound, the figures for the EC50 on hSERT [6], at hSERT [7] and on hDAT were 1260 µM, 2310 µM and 1280 µM, respectively.
`Nc1c(O)cc(S(=O)(=O)O)c2ccccc12` [TS16] came in with an IC50 against hSERT [5] of 453 µM. The EC50 on hSERT [6] worked out at 54 µM; at hSERT [7] it was 1.1 µM; on hDAT it was 2.9 µM.
At hSERT [5], `O=C(O)c1ccc2ccccc2c1O` [TS27] returned an IC50 of 275 µM. The EC50 on hSERT [6] is 185 µM; on hSERT [7], 220 µM; on hDAT it was 138 µM.

(Values after patent US20100048713A1, “COMPOUNDS ACTING ON THE SEROTONIN TRANSPORTER” (Aarhus Universitet, priority 2006, published 2010).)
